Source: patent US7241785B2, “Five-membered heterocyclic alkanoic acid derivative” (Takeda Pharmaceutical Company Limited, priority 2001, dated 2007)

How the values were obtained:
KKA^y mice [1] = test: Hypoglycemic and hypolipidemic (hypotriglyceridemic) actions in mice; assay type: in vivo; settings: Mus musculus, po, 96 h, 0.01% in powdery diet, four days
Procedure: Hypoglycemic and Hypolipidemic (Hypotriglyceridemic) Actions in Mice
Test compounds were mixed in a powdery diet (CE-2, Japan Clea) at the concentration of 0.01%, and freely given to KKA^y mice (11 to 12 weeks old, 5 mice per group), a model of type 2 diabetes mellitus, for four days. During this period, water was given freely. Blood was sampled from orbital venous plexus, and glucose and triglyceride levels in plasma separated from the blood were determined enzymatically using L type Wako Glu2 (Wako Pure Chemical Industries, Ltd.) or L type Wako TG.H (Wako Pure Chemical Industries, Ltd.), respectively.
In the Table, “hypoglycemic action (%)” represents a percent reduction (%) of the blood glucose level in the treatment group when the blood glucose level in the non-treatment group is taken as 100%. In addition, “hypolipidemic action (%)” represents a percent reduction (%) of the blood triglyceride level in the treatment group when the blood triglyceride level in the non-treatment group is taken as 100%.

KKA^y mice [2] = test: Total cholesterol lowering action and plasma anti-arteriosclerosis index-enhancing action in mice; assay type: in vivo; settings: Mus musculus, po, 96 h, 0.01% in powdery diet, four days
Procedure: Total Cholesterol Lowering Action and Plasma Anti-Arteriosclerosis Index-Enhancing Action in Mice
Test compounds were mixed in a powdery diet (CE-2, Japan Clea concentration of 0.01%, and freely given to KKA^y mice (11 to 12 weeks old, 5 mice per group), a model of type 2 diabetes mellitus, for four days. During this period, water was given freely. Blood was sampled from orbital venous plexus, and components in plasma separated from the blood were determined. Total cholesterol levels were determined using L type Wako Cholesterol (Wako Pure Chemical Industries, Ltd.). Precipitation reagent for HDL cholesterol was added to a part of the plasma to precipitate non-HDL lipoprotein, and cholesterol (HDL cholesterol) in the resulting supernatant was determined. The plasma anti-arteriosclerosis index [(HDL cholesterol/total cholesterol)×100] was calculated using these cholesterol levels.
In the Table, “total cholesterol lowering action (%)” represents a percent reduction (%) of the total cholesterol level in the treatment group when the total cholesterol level in the non-treatment group is taken as 100%. In addition, “plasma anti-arteriosclerosis index-enhancing action (%)” represents a percent increase (%) of the plasma anti-arteriosclerosis index in the treatment group when the plasma anti-arteriosclerosis index in the non-treatment group is taken as 100%.

[3] = percent reduction of blood glucose level vs non-treatment group (100%), read-out: Hypoglycemic action (%)
[4] = percent reduction of blood triglyceride level vs non-treatment group (100%), read-out: Hypolipidemic action (%)

Compound	melting point	further results
Cc1oc(-c2ccccc2)nc1COc1ccc(CN(C)c2nc(-c3ccccc3)c(CCC(=O)O)s2)cc1.Cl	106 to 108 °C	
Cc1oc(-c2ccccc2)nc1COc1ccc(CSc2nc(CCC(=O)O)n[nH]2)cc1 [Example 18, 3-[5-[4-(5-methyl-2-phenyl-4-oxazolylmethoxy)benzylthio]-1H-1,2,4-triazol-3-yl]propionic acid]	170 to 171 °C	
Cc1oc(-c2ccccc2)nc1COc1ccc(Sc2nc(CC(=O)O)cs2)cc1 [Example 19, [2-[4-(5-methyl-2-phenyl-4-oxazolylmethoxy)phenylthio]-4-thiazolyl]acetic acid]	180 to 181 °C	
Cc1oc(-c2ccccc2)nc1COc1ccc(COc2nn(Cc3ccccc3)cc2CCC(=O)O)cc1 [Example 20, 3-[1-benzyl-3-[-4-(5-methyl-2-phenyl-4-oxazolylmethoxy)benzyloxy]-1H-pyrazol-4-yl]propionic acid]	125 to 126 °C	
Cc1oc(-c2ccccc2)nc1CCOc1ccc(COc2nn(C)cc2CC(=O)O)cc1 [Example 22, [1-methyl-3-[4-[2-(5-methyl-2-phenyl-4-oxazolyl)ethoxy]benzyloxy]-1H-pyrazol-4-yl]acetic acid]	148 to 149 °C	
Cc1oc(-c2ccccc2)nc1COc1ccc(COc2nn(C)cc2CC(=O)O)cc1 [Example 24, [1-methyl-3-[4-(5-methyl-2-phenyl-4-oxazolylmethoxy)benzyloxy]-1H-pyrazol-4-yl]acetic acid]	133 to 134 °C	inhibition in vivo at 0.01 % in diet (KKA^y mice [1]; [3]): 50%; inhibition in vivo at 0.01 % in diet (KKA^y mice [1]; [4]): 22%
Cc1oc(-c2ccccc2)nc1COc1cc(COc2nn(C)cc2CC(=O)O)ccn1 [Example 28, [1-methyl-3-[2-(5-methyl-2-phenyl-4-oxazolylmethoxy)-4-pyridylmethoxy]-1H-pyrazol-4-yl]acetic acid]	126 to 127 °C	
Cc1oc(-c2ccccc2)nc1COc1cc(COc2nn(C)cc2CC(=O)O)on1 [Example 30, [1-methyl-3-[3-(5-methyl-2-phenyl-4-oxazolylmethoxy)-5-isoxazolylmethoxy]-1H-pyrazol-4-yl]acetic acid]	149 to 150 °C	
Cn1cc(CC(=O)O)c(OCc2cc(OCc3ccc4ccccc4n3)no2)n1 [Example 32, [1-methyl-3-[3-(2-quinolylmethoxy)-5-isoxazolylmethoxy]-1H-pyrazol-4-yl]acetic acid]	124 to 125 °C	
Cn1cc(CC(=O)O)c(OCc2ccc(OCc3csc(-c4ccccc4)n3)nc2)n1 [Example 34, [1-methyl-3-[6-(2-phenyl-4-thiazolylmethoxy)-3-pyridylmethoxy]-1H-pyrazol-4-yl]acetic acid]	156 to 157 °C	
Cc1sc(-c2ccccc2)nc1COc1ccc(COc2nn(C)cc2CC(=O)O)cn1 [Example 36, [1-methyl-3-[6-(5-methyl-2-phenyl-4-thiazolylmethoxy)-3-pyridylmethoxy]-1H-pyrazol-4-yl]acetic acid]	140 to 141 °C	
Cc1oc(-c2ccco2)nc1COc1ccc(COc2nn(C)cc2CC(=O)O)cn1 [Example 38, [3-[6-[2-(2-furyl)-5-methyl-4-oxazolylmethoxy]-3-pyridylmethoxy]-1-methyl-1H-pyrazol-4-yl]acetic acid]	155 to 156 °C	inhibition in vivo at 0.01 % in diet (KKA^y mice [1]; [3]): 47%; inhibition in vivo at 0.01 % in diet (KKA^y mice [1]; [4]): 36%; change in vivo at 0.01 % in diet (KKA^y mice [2]; percent increase of index [(HDL cholesterol/total cholesterol)×100] vs non-treatment group (100%)): 12%; inhibition in vivo at 0.01 % in diet (KKA^y mice [2]; percent reduction of total cholesterol level vs non-treatment group (100%)): 12%
COc1cc(COc2nn(C)cc2CC(=O)O)ccc1OCc1nc(-c2ccccc2)oc1C [Example 42, [3-[3-methoxy-4-(5-methyl-2-phenyl-4-oxazolylmethoxy)benzyloxy]-1-methyl-1H-pyrazol-4-yl]acetic acid]	153 to 154 °C	
Cc1oc(-c2ccccc2)nc1COc1ccc(COc2nn(Cc3ccccc3)cc2CC(=O)O)cc1 [Example 44, [1-benzyl-3-[4-(5-methyl-2-phenyl-4-oxazolylmethoxy)benzyloxy]-1H-pyrazol-4-yl]acetic acid]	91 to 92 °C	inhibition in vivo at 0.01 % in diet (KKA^y mice [1]; [3]): 53%; inhibition in vivo at 0.01 % in diet (KKA^y mice [1]; [4]): 68%
COc1cc(COc2nn(Cc3ccccc3)cc2CC(=O)O)ccc1OCc1nc(-c2ccccc2)oc1C [Example 46, [1-benzyl-3-[3-methoxy-4-(5-methyl-2-phenyl-4-oxazolylmethoxy)benzyloxy]-1H-pyrazol-4-yl]acetic acid]	99 to 100 °C	inhibition in vivo at 0.01 % in diet (KKA^y mice [1]; [3]): 54%; inhibition in vivo at 0.01 % in diet (KKA^y mice [1]; [4]): 56%
Cc1oc(-c2ccccc2)nc1COc1ccc(COc2nn(Cc3ccccc3)cc2CCC(=O)O)cn1 [Example 48, 3-[1-benzyl-3-[6-(5-methyl-2-phenyl-4-oxazolylmethoxy)-3-pyridylmethoxy]-1H-pyrazol-4-yl]propionic acid]	130 to 131 °C	
COC(=O)Cc1cn(-c2ccccc2)nc1OCc1ccc(OCc2nc(-c3ccccc3)oc2C)c(OC)c1 [Example 51, methyl [3-[3-methoxy-4-(5-methyl-2-phenyl-4-oxazolylmethoxy)benzyloxy]-1-phenyl-1H-pyrazol-4-yl]acetate]	107 to 108 °C	

Continued, in another order:

melting point	Compound	further results
96 to 97 °C	COC(=O)Cc1cn(-c2ccccc2)nc1OCc1ccc(OCc2nc(-c3ccccc3)oc2C)nc1 [Example 53, methyl [3-[6-(5-methyl-2-phenyl-4-oxazolylmethoxy)-3-pyridylmethoxy]-1-phenyl-1H-pyrazol-4-yl]acetate]	
161 to 162 °C	COc1cc(COc2nn(-c3ccccc3)cc2CCC(=O)O)ccc1OCc1nc(-c2ccco2)oc1C [Example 56, 3-[3-[4-[2-(2-furyl)-5-methyl-4-oxazolylmethoxy]-3-methoxybenzyloxy]-1-phenyl-1H-pyrazol-4-yl]propionic acid]	
110 to 111 °C	Cc1oc(-c2ccccc2)nc1COc1ccc(CCc2oc(-c3ccccc3)nc2CCC(=O)O)cc1 [Example 65, 3-[5-[2-[4-(5-methyl-2-phenyl-4-oxazolyl)methoxyphenyl]ethyl]-2-phenyl-4-oxazolyl]propionic acid]	
154 to 155 °C	Cc1oc(-c2ccco2)nc1COc1ccc(Cc2nc(CCC(=O)O)c(-c3ccccc3)o2)cc1 [Example 67, 3-[2-[4-[2-(2-furyl)-5-methyl-4-oxazolylmethoxy]benzyl]-5-phenyl-4-oxazolyl]propionic acid]	
74 to 76 °C	Cc1oc(-c2ccco2)nc1COc1ccc(Cc2nc(-c3ccccc3)c(CCC(=O)O)o2)cc1 [Example 69, 3-[2-[4-[2-(2-furyl)-5-methyl-4-oxazolylmethoxy]benzyl]-4-phenyl-5-oxazolyl]propionic acid]	
179 to 180 °C	COc1cc(COc2nn(-c3ccccc3)cc2CC(=O)O)ccc1OCc1nc(-c2ccco2)oc1C [Example 73, [3-[4-[2-(2-furyl)-5-methyl-4-oxazolylmethoxy]-3-methoxybenzyloxy]-1-phenyl-1H-pyrazol-4-yl]acetic acid]	
132 to 133 °C	COc1cc(COc2nn(-c3ccccc3)cc2CC(=O)N2CCOCC2)ccc1OCc1nc(-c2ccco2)oc1C [Example 74, 4-[3-[4-[2-(2-furyl)-5-methyl1–4-oxazolylmethoxy]-3-methoxybenzyloxy]-1-phenyl-1H-pyrazol-4-yl]acetylmorpholine]	
145 to 146 °C (dec.)	COc1cc(COc2cc(CC(=O)O)n(-c3ccccc3)n2)ccc1OCc1nc(-c2ccco2)oc1C [Example 77, [3-[4-[2-(2-furyl)-5-methyl-4-oxazolylmethoxy]-3-methoxybenzyloxy]-1-phenyl-1H-pyrazol-5-yl]acetic acid]	
157 to 158 °C	COc1cc(COc2cc(CCC(=O)O)n(-c3ccccc3)n2)ccc1OCc1nc(-c2ccccc2)oc1C [Example 79, 3-[3-[3-methoxy-4-(5-methyl-2-phenyl-4-oxazolylmethoxy)benzyloxy]-1-phenyl-1H-pyrazol-5-yl]propionic acid]	
154 to 155 °C	Cc1oc(-c2ccccc2)nc1COc1ccc(COc2cc(CCC(=O)O)n(-c3ccccc3)n2)cc1 [Example 81, 3-[3-[4-(5-methyl-2-phenyl-4-oxazolylmethoxy)benzyloxy]-1-phenyl-1H-pyrazol-5-yl]propionic acid]	
137 to 138 °C	Cc1oc(-c2ccccc2)nc1COc1cccc(COc2cc(CCC(=O)O)n(-c3ccccc3)n2)c1 [Example 83, 3-[3-[3-(5-methyl-2-phenyl-4-oxazolylmethoxy)benzyloxy]-1-phenyl-1H-pyrazol-5-yl]propionic acid]	
